According to paper PMC12668289 (RSC Chemical Biology, 2025):
Values joined by “and” are separate entries in the source; they are usually repeats but may differ in a detail not shown here. Equal values may be shown once. Read-outs that look alike come from different tables or passages of the source.

Experiments:
Fluc [1] = molecular target: T1, Fluc (Photinus pyralis, UniProt P08659); assay: BL emission spectra of luciferase-luciferin reactions; format: biochemical; conditions: 100 mM HEPES pH 8.0, 25 °C
Procedure: (§1) 1.5 Bioluminescence characterizations
(§2) Reactions of luciferases, including Photinus pyralis luciferase (Fluc), Phrixothrix hirtus luciferase (SLR), Pyrearinus termitilluminans […]
(§3) mM D-LH 2 analogues, 3 mM ATP, 6 mM MgCl2, and 10 µM luciferase in 0.2 ml of 100 mM HEPES-NaOH pH 8.0. The bioluminescence (BL) emission characteristics were recorded using a microplate reader in a BL mode (Thermo Scientific, Varioskan, LUX multimode). […]
(§4) sphere-based multichannel spectrometer with a charge-coupled device (CCD) detector. […]

SLR [2] = assay: as above; format: biochemical, Phrixothrix hirtus; conditions: 100 mM HEPES pH 8.0, 25 °C
Procedure: as §1, §2, §3, §4

Eluc = assay: as above; format: biochemical, Pyrearinus termitilluminans; conditions: 100 mM HEPES pH 8.0, 25 °C
Procedure: as §1, §2, §3, §4

Pmluc-WT [3] = assay: as above; format: biochemical, Pyrocoelia miyako; conditions: 100 mM HEPES pH 8.0, 25 °C
Procedure: as §1, §2, §3, §4

SLR [4] = assay: Steady-state kinetics of luciferase reactions (luminometer); format: biochemical, Phrixothrix hirtus; conditions: for Substrate inhibition: concentration range tested 0-300; for appKm: pH 8.0, 25 °C
Procedure: as §1, §2, §3
BL of the
(§5) The reactions were initiated by mixing 25 µl of premixed solution of luciferases/D-LH 2 analogues with 125 µl of 3 mM ATP and 6 mM MgCl2 in 100 mM HEPES-NaOH (pH 8.0). The light intensity (relative light unit, RLU) during 0-300 sec was then collected to represent the overall luciferase activity which was further used for calculating kinetic parameters from the Michaelis-Menten equation. […]

Pmluc-WT [5] = assay: as above; format: biochemical, Pyrocoelia miyako; conditions: for Substrate inhibition: concentration range tested 0-300; for appKm: pH 8.0, 25 °C
Procedure: as §1, §2, §3
BL of the
as §5

SLR [6] = assay: Stability of BL signals (half-time of light emission); format: biochemical, Phrixothrix hirtus; conditions: compared to 2a
Procedure: as §1, §2
(§6) mM D-LH 2 analogues, 3 mM ATP, 6 mM MgCl2, and 10 µM luciferase in 0.2 ml of 100 mM HEPES-NaOH pH 8.0. The bioluminescence (BL) emission characteristics were recorded using a microplate reader in a BL mode (Thermo Scientific, Varioskan, LUX multimode). A digital single-lens reflex (DSLR) camera (Nikon D80, CCD sensor) with a 30-second exposure period was used to capture the BL images. […]

Pmluc-N230S [7] = assay: as above; format: biochemical, Pyrocoelia miyako; conditions: compared to 2a
Procedure: as §1, §2, §6

Fluc [8] = molecular target: T1, Fluc; assay: Bioluminescence quantum yield measurement; format: biochemical
Procedure: as §1, §2
(§7) mM D-LH 2 analogues, 3 mM ATP, 6 mM MgCl2, and 10 µM luciferase in 0.2 ml of 100 mM HEPES-NaOH pH 8.0. […]
(§8) A reference light source was used for calibrating a sphere spectrometer equipped with a cooled CCD detector.
(§9) The absolute responsivity of each luciferase-luciferin reaction was calculated based on a linear standardization between total photon flux measured using the sphere spectrometer equipped with a cooled CCD detector and relative count values measured by a luminometer. Total photons emitted from the bioluminescence reaction of each luciferase-luciferin pair were measured using a calibrated luminometer. A reaction containing 0.5-5 nM of each luciferin, 3 mM ATP, 3 mM MgCl2 in 100 mM Tris-HCl (total volume of 200 µl) was placed into the luminometer and background signals were recorded. The reaction was then initiated by adding 20 µl of 0.5 […]
(§10) mM purified luciferases into the reaction tube and the bioluminescence signals were monitored until it decayed to the background level.

SLR [9] = assay: Bioluminescence quantum yield measurement; format: biochemical, Phrixothrix hirtus
Procedure: as §1, §2, §7, §8, §9, §10

Pmluc-N230S [10] = assay: Bioluminescence quantum yield measurement; format: biochemical, Pyrocoelia miyako
Procedure: as §1, §2, §7, §8, §9, §10

Fluc [11] = molecular target: T1, Fluc; assay: Stopped-flow luminometry, single turnover light formation and decay; format: biochemical
Procedure: 1.5 Bioluminescence characterizations […]
One syringe was filled with a solution of 50 µM Fluc, 3 mM ATP, and 6 mM
in both syringes were mixed by a stopped-flow device and measured the light emission at 25 °C in triplicate. […]
2.8 Investigation of bioluminescence kinetics using stopped-flow luminometry
reactions were investigated using a stopped-flow spectrophotometer (employing a light-off mode for detecting the luminescence). One

[12] = molecular target: T2, Fluc-containing HEK293T crude lysate (Photinus pyralis, UniProt P08659, K549A/L550V/N119G/N50D/S548I); assay: BL assay of crude lysate of HEK293T expressing Fluc; format: cell-based
T2 construct: expressed in transfected cells; host or cells: HEK293T, transient transfection with pGL4.13 [luc2/SV40]

SLR (HepG2) = assay: Sensitivity of live reporter cell detection (LOD of cell number); format: cell-based, human
Pmluc-N230S (HepG2) = assay: as above; format: cell-based, human
Fluc (HeLa) = assay: as above; format: cell-based, human; conditions: Fluc (HeLa)
Pmluc-N230S (HeLa) = assay: as above; format: cell-based, human; conditions: for Limit of detection (LOD), cells: Pmluc-N230S (HeLa); for Sensitivity higher than that of 2a: Pmluc-N230S expressing HeLa
[13] = Absorption and fluorescence spectra of luciferins; format: physicochemical; conditions: 100 mM HEPES pH 8.0, 25 °C
Procedure: 2.6 Spectra of firefly luciferins
spectrophotometer (Agilent technologies, Cary 100 UV Vis, Cary Series UV-Vis Spectrophotometer).
were recorded by a microplate reader (Thermo Scientific, Varioskan, LUX multimode) in fluorescence mode. The reactions of D-LH 2 […]
Supplementary Table S5. […]
[e] ND denotes “not detectable”. […]

[14] = test system: Fluc-expressing HeLa cells; assay: Real-time BL monitoring of live cells; conditions: 100 µM
Procedure: plasmids and Lipofectamine 3000 were then combined and incubated for 30 minutes to allow formation of DNA and lipid complexes.
The DNA-lipid complexes were added directly to each well of the empty plate. 1.5 × 10⁵ cells (HepG2 and HeLa cells) were then suspended
in 150 µL of DMEM supplemented with 10% FBS were added directly into the transfection mixture in each well. The plate was gently
agitated to ensure even distribution and incubated at 37°C in a humidified 5% CO₂ incubator. The reporter cells obtained at this stage
were ready for further investigation of their bioluminescence with D-LH2 analogues.
2c), 10% FBS and 25 mM HEPES-NaOH (pH 7.0) was added and the BL signals were monitored with F0 (no filter) and F2 (red filter, >620
nm long-pass filter) by a luminometer (ATTO, Kronos HT, WSL-1563) and while maintaining the cells with 5% CO2 at 37 °C.

Pmluc-N230S [15] = assay: BL emission spectra of luciferase-luciferin reactions; format: biochemical, Pyrocoelia miyako; conditions: 100 mM HEPES pH 8.0, 25 °C
Text: were selected to investigate their BL emission spectra with luciferases including Fluc, SLR, Pmluc-WT, Pmluc-N230S using an integrating sphere-based multichannel spectrometer with a charge-coupled device (CCD) detector.

Fluc [16] = molecular target: T1, Fluc; conditions: Fluc; cited from earlier work

T2 sequence (P08659 whole entry N50D/N119G/S548I/K549A/L550V): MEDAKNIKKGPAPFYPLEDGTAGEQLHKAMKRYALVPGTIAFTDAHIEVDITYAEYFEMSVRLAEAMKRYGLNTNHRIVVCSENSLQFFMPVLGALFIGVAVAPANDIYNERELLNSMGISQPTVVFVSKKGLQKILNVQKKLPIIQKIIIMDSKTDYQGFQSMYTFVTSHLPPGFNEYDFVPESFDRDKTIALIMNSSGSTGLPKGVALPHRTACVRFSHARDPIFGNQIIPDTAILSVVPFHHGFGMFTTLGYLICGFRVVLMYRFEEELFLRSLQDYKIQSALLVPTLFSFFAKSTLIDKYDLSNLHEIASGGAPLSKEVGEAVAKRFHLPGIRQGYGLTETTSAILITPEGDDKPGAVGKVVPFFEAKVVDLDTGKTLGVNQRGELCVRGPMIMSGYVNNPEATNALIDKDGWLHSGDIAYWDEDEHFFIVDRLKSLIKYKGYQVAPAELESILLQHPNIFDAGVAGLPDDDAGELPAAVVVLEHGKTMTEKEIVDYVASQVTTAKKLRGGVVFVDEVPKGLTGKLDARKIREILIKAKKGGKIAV
T1 sequence (P08659 whole entry): as the sequence (P08659 whole entry N50D/N119G/S548I/K549A/L550V) above, with D50N, G119N, I548S, A549K, V550L counted along it

Compound	Bioluminescence wavelength (BLλ) (SLR [2]) [nm]	Bioluminescence wavelength (BLλ) (Eluc) [nm]	Bioluminescence wavelength (BLλ) (Pmluc-WT [3]) [nm]	Substrate inhibition (SLR [4]) [µM]	appKm (SLR [4]) [µM]	Substrate inhibition (Pmluc-WT [5]) [µM]	appKm (Pmluc-WT [5]) [µM]	Quantum yield (Fluc [8])	Quantum yield (SLR [9])	Quantum yield (Pmluc-N230S [10])	Limit of detection (LOD) of expressed Fluc in crude cell lysates ([12]; HEK293T crude lysate) [ng]	Limit of detection (LOD), cells (SLR (HepG2); F0 (no filter)) [cells]	Limit of detection (LOD), cells (SLR (HepG2); F2 (red filter)) [cells]	Limit of detection (LOD), cells (Pmluc-N230S (HepG2); F0 (no filter)) [cells]	Limit of detection (LOD), cells (Pmluc-N230S (HepG2); F2 (red filter)) [cells]	Limit of detection (LOD), cells (Fluc (HeLa); F0 (no filter)) [cells]	Limit of detection (LOD), cells (Fluc (HeLa); F2 (red filter)) [cells]	Limit of detection (LOD), cells (Pmluc-N230S (HeLa); F0 (no filter)) [cells]	Limit of detection (LOD), cells (Pmluc-N230S (HeLa); F2 (red filter)) [cells]	Absorption (λmax) [13] [nm]	other results
Cc1cc2nc(C3=N[C@@H](C(=O)O)CS3)sc2cc1O [Compound 2b, 5’-methyl-D-luciferin]	626	560	608	> 14	0.7	> 2	0.4	0.52 and 0.52 ± 0.01	0.19 and 0.190 ± 0.005	0.17 and 0.170 ± 0.034	4.6	643	783	752	247	1457	415	630	812	323	Bioluminescence wavelength (BLλ) (Fluc [1]): 605 nm; Relative kcat (SLR [4]; relative to 2a compound): 157.3; Relative kcat (Pmluc-WT [5]; relative to 2a compound): 110.0; BL half-life (t1/2) longer than that of 2a (SLR [6]): about 1.5 fold; BL half-life (t1/2) longer than that of 2a (Pmluc-N230S [7]): about 1.7 fold; Observed rate constant (kobs) Light decay Faster phase (Fluc [11]; Fluc single turnover, 25 °C): 1.55 s⁻¹ and 1.55 ± 0.15 s⁻¹; Observed rate constant (kobs) Light decay Slower phase (Fluc [11]; Fluc single turnover, 25 °C): 0.27 s⁻¹ and 0.27 ± 0.00 s⁻¹; Observed rate constant (kobs) Light formation (Fluc [11]; Fluc single turnover, 25 °C): 9.63 s⁻¹ and 9.63 ± 0.04 s⁻¹; Sensitivity to detect Fluc better than natural D-LH2 (2a) ([12]; HEK293T crude lysate, from LOD): about 11.2 fold; Sensitivity greater than 2a ([12]; HEK293T lysate, varied substrate concentration and lysate amount): about 2 fold; Light intensity greater than 2a ([12]; fixed amount of HEK293T crude lysate, varied concentration): about 2.5 fold; Sensitivity higher than that of 2a (Pmluc-N230S (HeLa); F0 filter): about 2.3 fold; Sensitivity higher than that of 2a (Pmluc-N230S (HeLa); F2 filter): ~1.4 fold; Fluorescence (λem) [13]: 523 nm and 523–560 nm; Time BL signals increase or are prolonged before decreasing [14]: up to 13 h
O=C(O)[C@H]1CSC(c2nc3ccc(O)cc3s2)=N1 [Compound 2a, D-luciferin, reference compound]	625	537	554	> 4	0.5	> 4	0.1	0.44 and 0.44 ± 0.04	0.16 and 0.160 ± 0.005	0.16 and 0.160 ± 0.018	51.6	802	1071	2010	1880	4661	997	1428	1185	327	Bioluminescence wavelength (BLλ) (Pmluc-N230S [15]): 614 nm; Observed rate constant (kobs) Light decay Faster phase (Fluc [11]): 1.57 and 1.57 ± 0.02 s^−1; Observed rate constant (kobs) Light decay Slower phase (Fluc [11]): 0.29 and 0.29 ± 0.00 s^−1; Observed rate constant (kobs) Light formation (Fluc [11]): 6.64 and 6.64 ± 0.05 s^−1; Fluorescence (λem) [13]: 543 nm and 523–560 nm; Quantum yield (Fluc [16]): 41%
